Laboratory results reported in patent US20260167675A1, “VIRAL PEPTIDES AND USES THEREOF” (priority 2022, published 2026).

System: human HLA-A11
Assay: Flow cytometry binding of a pan HLA-A antibody against K562/HLA-A11 cells pulsed with HBV POL606-616 peptides (peptide loading)
Format: cell-based
Details: maximum MFI pulsed / maximum MFI un-pulsed cells, loaded if S/N > 1.1; for S/N Peptide Concentration (33 μg/ml): K562/HLA-A11 cells pulsed with 33 μg/ml peptide; for S/N Peptide Concentration (100 μg/ml): K562/HLA-A11 cells pulsed with 100 μg/ml peptide
Description: The present Example was designed to assess loading of HBV POL606-616 peptides on HLA-A11 in K562 cells engineered to express human HLA-A11 (K562/HLA-A11 cells). To assess loading of HBV POL606-616 peptides on HLA-A11, K562 cells engineered to express human HLA-A11 (K562/HLA-A11 cells) were pulsed by resuspending the cells in AIM V medium (Gibco. Catalog #31035-025) at a density of 1×10^6 cells/ml followed by the addition of 10 μg/ml human β2-microglobulin (hB2M; EMID Millipore Catalog #475828) and either 100 μg/ml or 33 μg/ml of the indicated peptide (Table 14).
K562/HLA-A11 cells were then incubated overnight at 37° C. Peptide-pulsed cells were then harvested and plated in staining buffer (PBS, without Calcium and Magnesium (Corning, Reference #21-031-CV)+2% FBS (Seradigm, Lot #238B15)) at a density of 200,000 cells per well in a 96-well V-Bottom plate. Cells were incubated with three-fold serial dilutions (5.1 pM-100 nM) with a pan HLA-A antibody (Novus, Catalog #DDX0250P-100) for 30 minutes at 4° C., washed once in staining buffer, and incubated with an Alexa-647 conjugated secondary antibody (Jackson ImmunoResearch, Catalog #115-606-071) at 5 µg/ml for 30 minutes at 4° C. Cells were again washed once in staining buffer and stained with viability dye (CellTrace™ Violet Cell Proliferation Kit, Thermo-Fisher Cat #C34557) for 30 minutes at 4° C. Lastly, cells were washed once in staining buffer and fixed using a 50% solution of BD Cytofix (BD, Catalog #554655). Samples were run and analyzed on an IntelliCyt iQue flow cytometer to calculate mean fluorescence intensity (MFI) on live cells. MFI values were plotted in GraphPad Prism. The secondary antibody alone condition (i.e., no primary antibody) for each dose-response curve was also included in the analysis as a continuation of the three-fold serial dilution and was represented as the lowest dose. The signal-to-noise (S/N) was calculated by dividing the maximum MFI on the pulsed cells by the maximum MFI on un-pulsed K562/HLA-A11 cells (Table 15). Peptides were determined to load if the S/N from pulsed cells/un-pulsed cells was greater than 1.1.

Row | Sequence | S/N Peptide Concentration (33 μg/ml) | S/N Peptide Concentration (100 μg/ml)
1 | GSLPQEHIIQK (Hepatitis B virus) [HBV POL606-616 V4] | 1.5 | 1.5
2 | GTLPQEHIVQK (Hepatitis B virus) [HBV POL606-616 V3] | 1.6 | 1.5
3 | GTLPQEHIVHK (Hepatitis B virus) [HBV POL606-616 V2] | 1.0 | 1.1
4 | GSLPQEHIVQK (Hepatitis B virus) [HBV POL606-616 V1] | 1.6 | 1.4
